This note sets out measurements from patent US20080234337A1, “Preventive and/or Remedy for Hyperkalemia Containing Ep4 Agonist” (ONO PHARMACEUTICAL CO., LTD., priority 2004, published 2008).

The test concerns the target T1, EP4 (Cavia porcellus, UniProt Q1HG69).
T1 construct: Tissue samples including submucosal ganglia and mucosa were obtained by removal of myenteric plexus; from tissue; host or cells: guinea pig distal colon (mucosa with submucosal ganglia), mounted in Ussing flux chambers
The test is described as follows: Short-circuit current (Isc) measurement of colonic ion transport in guinea pig distal colon tissue using Ussing flux chamber (investigation of EP4 agonistic activity). The test is classed as cell-based.

Molecules are shown by their SMILES.

T1 sequence (Q1HG69 1-487): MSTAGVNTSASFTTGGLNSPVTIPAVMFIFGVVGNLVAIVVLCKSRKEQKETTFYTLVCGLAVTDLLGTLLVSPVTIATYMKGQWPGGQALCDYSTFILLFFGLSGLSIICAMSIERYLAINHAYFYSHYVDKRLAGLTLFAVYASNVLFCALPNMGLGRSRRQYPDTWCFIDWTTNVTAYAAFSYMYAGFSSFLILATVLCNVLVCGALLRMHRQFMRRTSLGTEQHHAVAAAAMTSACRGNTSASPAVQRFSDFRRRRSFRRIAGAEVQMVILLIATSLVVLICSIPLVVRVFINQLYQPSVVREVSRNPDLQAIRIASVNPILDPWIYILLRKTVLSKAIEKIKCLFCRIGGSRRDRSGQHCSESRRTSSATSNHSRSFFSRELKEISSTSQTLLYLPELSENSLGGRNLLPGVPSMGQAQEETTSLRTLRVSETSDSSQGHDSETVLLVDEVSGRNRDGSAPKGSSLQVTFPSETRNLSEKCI

`CCCCC[C@H](O)/C=C/[C@H]1[C@H](O)CC(=O)[C@@H]1C/C=C\CCCC(=O)O` [PGE2]: the “decrease of short-circuit current (Isc) in presence of EP4 antagonist” value (PGE2 at low concentration plus EP4 antagonist (not named)) was “countered by EP4 antagonist”. Besides, the “change of short-circuit current (Isc)” value is, setting by setting: (added into serosal chamber at 10^-5 mol/L, tetrodotoxin and piroxicam pretreatment, FIG. 1) “biphasic [Transient phase, Sustained Phase] change of short-circuit current (Isc)”; (added into serosal chamber at 10^-6 mol/L, tetrodotoxin and piroxicam pretreatment, FIG. 1) “temporary increase of Isc”; (added into serosal chamber at from 10^-8 to 10^-7 mol/L, tetrodotoxin and piroxicam pretreatment, FIG. 1) “decrease of Isc”; (low concentration) “decrease of short-circuit current (Isc)”. Also, the “potassium secretion (suggested by decrease of Isc)” value (low concentration) is “promoted the potassium secretion”.

For the molecule `COCc1cccc(C[C@H](O)/C=C/[C@H]2[C@H](O)CC(=O)[C@@H]2SCCCSCC(=O)O)c1` [compound 1, ({3-[((1R,2S,3R)-3-hydroxy-2-{(1E,3S)-3-hydroxy-4-[3-(methoxymethyl)phenyl]but-1-enyl}-5-oxocyclopentyl)sulfanyl]propyl}sulfanyl)acetic acid], under “addition of test compound into serosal chamber, concentration not given, FIG. 3”, the “change of short-circuit current (Isc)” value was “decrease of short-circuit current (Isc)”.
